Among the data in ChEMBL document CHEMBL1147983 are IC50 values, retold here.

Structures are written as SMILES. Some results are limits rather than exact numbers.

Experiment [1] deals with Epidermal growth factor receptor (Homo sapiens, UniProt P00533). Put plainly: Inhibition of EGFR.
The target of experiment [2] is T1, Aurora kinase A (Homo sapiens, UniProt O14965).
T1 sequence (O14965 whole entry): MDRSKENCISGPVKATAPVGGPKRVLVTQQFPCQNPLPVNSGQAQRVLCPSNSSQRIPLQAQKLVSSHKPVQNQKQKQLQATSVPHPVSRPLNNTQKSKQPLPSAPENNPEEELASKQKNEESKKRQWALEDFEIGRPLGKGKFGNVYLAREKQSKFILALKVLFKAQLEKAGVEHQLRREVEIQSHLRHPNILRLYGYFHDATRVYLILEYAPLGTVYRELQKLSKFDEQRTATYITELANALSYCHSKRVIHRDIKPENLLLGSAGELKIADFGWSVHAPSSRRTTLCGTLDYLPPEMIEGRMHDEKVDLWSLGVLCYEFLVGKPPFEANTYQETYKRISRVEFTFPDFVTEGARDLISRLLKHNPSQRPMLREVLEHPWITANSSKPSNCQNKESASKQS

A word on the IC50: it is the point on the concentration scale where inhibition reaches its midpoint.

Epidermal growth factor receptor, sequence (P00533 whole entry): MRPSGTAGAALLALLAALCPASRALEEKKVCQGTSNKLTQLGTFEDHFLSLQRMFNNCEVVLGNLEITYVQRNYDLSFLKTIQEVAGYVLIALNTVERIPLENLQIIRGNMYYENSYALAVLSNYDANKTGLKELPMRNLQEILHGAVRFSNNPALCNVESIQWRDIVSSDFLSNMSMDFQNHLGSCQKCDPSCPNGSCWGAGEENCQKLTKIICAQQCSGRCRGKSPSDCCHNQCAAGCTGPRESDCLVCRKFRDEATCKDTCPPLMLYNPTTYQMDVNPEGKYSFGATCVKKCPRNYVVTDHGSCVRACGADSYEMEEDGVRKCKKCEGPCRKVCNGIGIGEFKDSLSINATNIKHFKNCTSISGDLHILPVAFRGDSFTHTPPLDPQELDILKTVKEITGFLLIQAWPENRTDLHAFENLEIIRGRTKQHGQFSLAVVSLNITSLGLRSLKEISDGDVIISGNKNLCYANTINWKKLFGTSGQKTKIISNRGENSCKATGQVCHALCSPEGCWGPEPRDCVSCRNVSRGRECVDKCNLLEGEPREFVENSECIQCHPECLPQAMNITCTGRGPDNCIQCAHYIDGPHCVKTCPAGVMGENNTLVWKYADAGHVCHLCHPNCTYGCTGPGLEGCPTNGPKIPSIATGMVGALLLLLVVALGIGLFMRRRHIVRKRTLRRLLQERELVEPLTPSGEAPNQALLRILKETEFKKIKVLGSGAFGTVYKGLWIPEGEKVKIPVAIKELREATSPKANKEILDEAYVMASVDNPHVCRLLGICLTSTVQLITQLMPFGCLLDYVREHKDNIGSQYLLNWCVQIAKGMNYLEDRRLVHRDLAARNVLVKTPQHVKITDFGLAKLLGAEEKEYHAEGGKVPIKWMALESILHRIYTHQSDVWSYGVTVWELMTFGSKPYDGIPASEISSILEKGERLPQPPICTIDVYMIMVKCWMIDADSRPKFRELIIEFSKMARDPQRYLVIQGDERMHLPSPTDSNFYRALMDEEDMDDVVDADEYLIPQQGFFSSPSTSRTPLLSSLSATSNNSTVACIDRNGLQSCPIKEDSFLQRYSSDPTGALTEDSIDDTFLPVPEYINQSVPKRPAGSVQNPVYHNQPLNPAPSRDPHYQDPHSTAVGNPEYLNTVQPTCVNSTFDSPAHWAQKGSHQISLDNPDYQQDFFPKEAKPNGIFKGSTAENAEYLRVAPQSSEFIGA

In the case of `O=C(Nc1cccc(Nc2ccnc(Nc3cccc(C(F)(F)F)c3)n2)c1)C1CC1`, the IC50 was > 10000 nM in experiment [1] and 931 nM in experiment [2].

As to `O=C(Nc1cccc(Nc2cc(Nc3cccc(C(F)(F)F)c3)ncn2)c1)C1CC1`, the IC50 is 21 nM in experiment [1] and > 10000 nM in experiment [2]. Regarding `O=C(Nc1cccc(Nc2nccc(Nc3cccc(C(F)(F)F)c3)n2)c1)C1CC1` [ANILINOPYRIMIDINE1], in experiment [1], the IC50 was > 10000 nM.
